In US11912710B2 (UPPTHERA, INC., priority 2021, dated 2024):

Columns and labels:
Type in all cases: cell-based
PLK1 = target: T1, PLK1 (Homo sapiens, UniProt P53350); experiment: Luciferase assay for PLK1 in HeLa LgBit (Plk1-HiBit KI) cell line; conditions: 300 nM compound, luminescence after 9 hours, read-out: Activity: ratio of the luminescense value of compound treatment group to DMSO treatment group
T1 construct: endogenous in cells; host or cells: HeLa LgBit (Plk1-HiBit KI): HeLa cells stably expressing LgBit, with HiBit knocked into the endogenous Plk1 locus by CRISPR/Cas9
T1 sequence (P53350 whole entry): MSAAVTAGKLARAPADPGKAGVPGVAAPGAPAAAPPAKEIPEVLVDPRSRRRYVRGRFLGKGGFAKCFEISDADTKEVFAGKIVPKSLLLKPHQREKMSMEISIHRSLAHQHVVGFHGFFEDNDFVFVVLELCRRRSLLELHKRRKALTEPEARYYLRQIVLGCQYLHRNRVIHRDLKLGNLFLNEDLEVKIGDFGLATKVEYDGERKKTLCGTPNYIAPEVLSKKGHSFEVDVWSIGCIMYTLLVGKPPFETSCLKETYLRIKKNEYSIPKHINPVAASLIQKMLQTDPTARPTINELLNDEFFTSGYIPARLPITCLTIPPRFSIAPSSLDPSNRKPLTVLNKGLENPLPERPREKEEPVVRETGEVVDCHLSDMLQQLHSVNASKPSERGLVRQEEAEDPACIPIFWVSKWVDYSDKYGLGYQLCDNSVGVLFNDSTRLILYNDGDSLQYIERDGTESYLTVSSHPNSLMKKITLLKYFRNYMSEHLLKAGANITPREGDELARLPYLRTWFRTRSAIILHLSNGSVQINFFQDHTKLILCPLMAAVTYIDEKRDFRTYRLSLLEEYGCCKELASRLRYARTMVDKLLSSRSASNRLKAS
Summary of the method: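 HeLa cells stably expressing LgBit, with HiBit knocked in at the C-terminus of endogenous Plk1, released from a 24 h 2 mM thymidine block and grown 18 h. Endurazine added, then compound at 300 nM; luminescence tracked in real time, expressed as ratio to DMSO.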

MRC-5 cell line = experiment: Cell viability assay (cytotoxicity) for MRC-5 cell line; conditions: Homo sapiens, MRC5, 120 h; MRC-5 normal cell line, 5 days, EZ-Cytox, 10000 nM to 1.52 nM; read-out: Activity: IC50 value to MRC-5 cell line (Exemplary Compounds)
Experimental: 4. Cell Viability Assay for MRC-5 Cell Line
(1) Culture of MRC-5 Cell Line
Passage of cultured cells was maintained within P15.
(2) Treatment of Compounds of the Present Invention
Then, it was cultured in 37° C.
(3) Cytotoxicity Experiment
CO2 incubator for 4 hours.
Cell Viability Assay for MRC-5 cell line

NCI-H526 cell line = experiment: Cell viability assay for H526 cell line; conditions: Homo sapiens, NCI-H526, 120 h; H526 cells, 5 days, EZ-Cytox, 3000 nM to 0.46 nM
Summary of the method: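 NCI-H526 cells exposed to compounds for 5 days in a CO2 incubator; viability read as absorbance at 450 nm after 3 min plate shaking; IC50 derived from treatment response.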

remaining activity at 0.3 µM (PLK1) | SMILES | IC50 (MRC-5 cell line) | IC50 (NCI-H526 cell line)
< 30% | COc1cc(C(=O)NC2CC3(CCN(CC4CCN(c5ccc(C6CCC(=O)NC6=O)cc5)CC4)CC3)C2)ccc1Nc1ncc2c(n1)N(C1CCCC1)CC(F)(F)C(=O)N2C (stereo not drawn) [Compound 16, 4-((9-cyclopentyl-7,7-difluoro-5-methyl-6-oxo-6,7,8,9-tetrahydro-5H-pyrimido[4,5-b][1,4]diazepin-2-yl)amino)-N-(7-((1-(4-(2,6-dioxopiperidin-3-yl)phenyl)piperidin-4-yl)methyl)-7-azaspiro[3.5]nonan-2-yl)-3-methoxybenzamide] | 9.12 µM | < 0.03 µM
< 30% | COc1cc(C(=O)NN2CCC([C@@H](C)CN3CCN(c4ccc(C5CCC(=O)NC5=O)cc4F)CC3)CC2)ccc1Nc1ncc2c(n1)N(C1CCCC1)CC(F)(F)C(=O)N2C (stereo partly drawn) [Compound 19, 4-((9-cyclopentyl-7,7-difluoro-5-methyl-6-oxo-6,7,8,9-tetrahydro-5H-pyrimido[4,5-b][1,4]diazepin-2-yl)amino)-N-(4-((2R)-1-(4-(4-(2,6-dioxopiperidin-3-yl)-2-fluorophenyl)piperazin-1-yl)propan-2-yl)piperidin-1-yl)-3-methoxybenzamide] | > 10 µM | < 0.03 µM
< 30% | COc1cc(C(=O)NN2CCC([C@H](C)CN3CCN(c4ccc(C5CCC(=O)NC5=O)cc4F)CC3)CC2)ccc1Nc1ncc2c(n1)N(C1CCCC1)CC(F)(F)C(=O)N2C (stereo partly drawn) [Compound 20, 4-((9-cyclopentyl-7,7-difluoro-5-methyl-6-oxo-6,7,8,9-tetrahydro-5H-pyrimido[4,5-b][1,4]diazepin-2-yl)amino)-N-(4-((2S)-1-(4-(4-(2,6-dioxopiperidin-3-yl)-2-fluorophenyl)piperazin-1-yl)propan-2-yl)piperidin-1-yl)-3-methoxybenzamide] | > 10 µM | < 0.05 µM
< 30% | COc1cc(C(=O)NC2CCN(CC3CC4(CCN(c5ccc(C6CCC(=O)NC6=O)cc5F)CC4)C3)CC2)ccc1Nc1ncc2c(n1)N(C1CCCC1)CC(F)(F)C(=O)N2C (stereo not drawn) [Compound 21, 4-((9-cyclopentyl-7,7-difluoro-5-methyl-6-oxo-6,7,8,9-tetrahydro-5H-pyrimido[4,5-b][1,4]diazepin-2-yl)amino)-N-(1-((7-(4-(2,6-dioxopiperidin-3-yl)-2-fluorophenyl)-7-azaspiro[3.5]nonan-2-yl)methyl)piperidin-4-yl)-3-methoxybenzamide] | > 10 µM | < 0.05 µM
< 30% | COc1cc(C(=O)NCC2CCN(CC3CCN(c4ccc(C5CCC(=O)NC5=O)cc4F)CC3)CC2)ccc1Nc1ncc2c(n1)N(C1CCCC1)CC(F)(F)C(=O)N2C (stereo not drawn) [Compound 22, 4-((9-cyclopentyl-7,7-difluoro-5-methyl-6-oxo-6,7,8,9-tetrahydro-5H-pyrimido[4,5-b][1,4]diazepin-2-yl)amino)-N-((1-((1-(4-(2,6-dioxopiperidin-3-yl)-2-fluorophenyl)piperidin-4-yl)methyl)piperidin-4-yl)methyl)-3-methoxybenzamide] | > 10 µM | < 0.03 µM
< 30% | COc1cc(C(=O)NCC2CC23CCN(CC2CCN(c4ccc(C5CCC(=O)NC5=O)cc4F)CC2)CC3)ccc1Nc1ncc2c(n1)N(C1CCCC1)CC(F)(F)C(=O)N2C (stereo not drawn) [Compound 24, 4-((9-cyclopentyl-7,7-difluoro-5-methyl-6-oxo-6,7,8,9-tetrahydro-5H-pyrimido[4,5-b][1,4]diazepin-2-yl)amino)-N-((6-((1-(4-(2,6-dioxopiperidin-3-yl)-2-fluorophenyl)piperidin-4-yl)methyl)-6-azaspiro[2.5]octan-1-yl)methyl)-3-methoxybenzamide] | > 10 µM | < 0.05 µM
< 30% | COc1cc(C(=O)NC2CC3(CCN(CC4CCN(c5ccc(C6CCC(=O)NC6=O)cc5C)CC4)CC3)C2)ccc1Nc1ncc2c(n1)N(C1CCCC1)CC(F)(F)C(=O)N2C (stereo not drawn) [Compound 25, 4-((9-cyclopentyl-7,7-difluoro-5-methyl-6-oxo-6,7,8,9-tetrahydro-5H-pyrimido[4,5-b][1,4]diazepin-2-yl)amino)-N-(7-((1-(4-(2,6-dioxopiperidin-3-yl)-2-methylphenyl)piperidin-4-yl)methyl)-7-azaspiro[3.5]nonan-2-yl)-3-methoxybenzamide] | > 10 µM | < 0.03 µM
< 60% | COc1cc(C(=O)NC2CC3(CCN(CC4(C)CCN(c5ccc(C6CCC(=O)NC6=O)cc5F)CC4)CC3)C2)ccc1Nc1ncc2c(n1)N(C1CCCC1)CC(F)(F)C(=O)N2C (stereo not drawn) [Compound 26, 4-((9-cyclopentyl-7,7-difluoro-5-methyl-6-oxo-6,7,8,9-tetrahydro-5H-pyrimido[4,5-b][1,4]diazepin-2-yl)amino)-N-(7-((1-(4-(2,6-dioxopiperidin-3-yl)-2-fluorophenyl)-4-methylpiperidin-4-yl)methyl)-7-azaspiro[3.5]nonan-2-yl)-3-methoxybenzamide] | 5.59 µM | < 0.05 µM
< 60% | COc1cc(C(=O)NC2CC3(CCN(CC4CCN(c5ccc(C6CCC(=O)NC6=O)cc5F)CC4C)CC3)C2)ccc1Nc1ncc2c(n1)N(C1CCCC1)CC(F)(F)C(=O)N2C (stereo not drawn) [Compound 27, 4-((9-cyclopentyl-7,7-difluoro-5-methyl-6-oxo-6,7,8,9-tetrahydro-5H-pyrimido[4,5-b][1,4]diazepin-2-yl)amino)-N-(7-((1-(4-(2,6-dioxopiperidin-3-yl)-2-fluorophenyl)-3-methylpiperidin-4-yl)methyl)-7-azaspiro[3.5]nonan-2-yl)-3-methoxybenzamide] | > 10 µM | < 0.03 µM
< 60% | COc1cc(C(=O)NC2CCN(C(=O)CCN3CCN(c4ccc(N5CCC(=O)NC5=O)cc4)CC3)CC2)ccc1Nc1ncc2c(n1)N(C1CCCC1)CC(F)(F)C(=O)N2C [Compound 32, 4-((9-cyclopentyl-7,7-difluoro-5-methyl-6-oxo-6,7,8,9-tetrahydro-5H-pyrimido[4,5-b][1,4]diazepin-2-yl)amino)-N-(1-(3-(4-(4-(2,4-dioxotetrahydropyrimidin-1(2H)-yl)phenyl)piperazin-1-yl)propanoyl)piperidin-4-yl)-3-methoxybenzamide] | > 10 µM | < 0.03 µM
< 70% | COc1cc(C(=O)NC2CC3(CCN(CC4CCN(c5ccc(N6CCC(=O)NC6=O)cc5)CC4)CC3)C2)ccc1Nc1ncc2c(n1)N(C1CCCC1)CC(F)(F)C(=O)N2C [Compound 33, 4-((9-cyclopentyl-7,7-difluoro-5-methyl-6-oxo-6,7,8,9-tetrahydro-5H-pyrimido[4,5-b][1,4]diazepin-2-yl)amino)-N-(7-((1-(4-(2,4-dioxotetrahydropyrimidin-1(2H)-yl)phenyl)piperidin-4-yl)methyl)-7-azaspiro[3.5]nonan-2-yl)-3-methoxybenzamide] | > 10 µM | < 0.03 µM
< 60% | COc1cc(C(=O)NC2CCN(C(=O)CCCOc3cccc(C4CCC(=O)NC4=O)n3)CC2)ccc1Nc1ncc2c(n1)N(C1CCCC1)CC(F)(F)C(=O)N2C (stereo not drawn) [Compound 35, 4-((9-cyclopentyl-7,7-difluoro-5-methyl-6-oxo-6,7,8,9-tetrahydro-5H-pyrimido[4,5-b][1,4]diazepin-2-yl)amino)-N-(1-(4-((6-(2,6-dioxopiperidin-3-yl)pyridin-2-yl)oxy)butanoyl)piperidin-4-yl)-3-methoxybenzamide] | > 10 µM | < 0.05 µM
